Reference: patent US20250283019A1, “NEURO-INTEGRATED BIOREACTOR SYSTEM FOR STUDYING JOINT PAIN AND TREATMENT THEREOF” (University of Pittsburgh - Of the Commonwealth System of …, priority 2022, published 2025)

How the values were obtained:
sensory neurons = test: Sensitization of sensory neurons in fura-2 Ca2+ imaging and whole cell patch recordings; format: cell-based
From the text: Macrophages can be added to any of the tissue scaffolds in the bioreactor to assess their contribution to joint pain modeled by the neu-microJoint bioreactor. M1 macrophages are a classically activated pro-inflammatory cell type that express pro-inflammatory cytokines, chemokines and many other substances. M2 macrophages are alternatively activated and have an anti-inflammatory pro-tissue regenerative phenotype.

[1] = test system: cartilage (in the upper part of the bone/cartilage chamber); test: IL1β OA model in the neu-microJoint bioreactor: mRNA expression in cartilage; format: cell-based, human; conditions: IL1β applied to the synovium flow only; cartilage not directly exposed; 10 ng/mL for 1 week
From the text: For the tissue scaffolds containing synovial cells, adipose cells, chondrocytes, or osteocytes, human mesenchymal stem cells (MSCs, >98% positive to CD73, 90, 105 and >99% negative to CD31, 34, 45, capable of colony formation and trilineage differentiation) or human iPSCs-derived MSCs (iMPCs) are encapsulated in photo-crosslinked gelatin scaffolds, and then subjected to tissue specific media to generate individual synovium, adipose, osteochondral tissues, as well as an additional individual macrophage component. After maturation, these tissue constructs are assembled with the chamber body inserts as described herein and inserted into the outer chambers of the neu-microJoint bioreactor, the fluid conduits are tapped and connected to suitable tubing, and tissue culture medium is pumped through the device to perfuse the tissue scaffolds. […]
Since IL1β that is used to generate the OA model is only applied to the flow of synovium, it indirectly stimulates the other tissues. […] As this may be part of the OA process, retrograde tracers may be used to distinguish activity in neurons innervating the synovium chamber from those innervating other chambers, and corresponding neural activity is monitored.

DRG neurons = test: Spiking of DRG neurons on MEAs in the central chamber of the neu-microJoint bioreactor in response to KCl; format: cell-based; conditions: 30 mM KCl; DRG neurons cultured on MEAs for 4 days; screened with 10, 30 and 50 mM; little to no spontaneous activity at baseline
Description: Acutely dissociated DRG neurons are plated in the neural chamber and cultured in 2D at a density of […] to enable recording of neural activity, for example with microelectrodes or MEAs embedded in the floor of the chamber.
To enable recording of neural activity, sensory neurons are plated on a high-density microelectrode array (MEA) embedded in the floor of the neuron bioreactor chamber. Additionally, over the course of 28 days, the neurites reach the synovium, bone, and adipose chambers. In addition, they are functional, as assessed by the ability to maintain physiological cytosolic Ca^2+ concentrations (˜100 nM), a healthy resting membrane potential <−50 mV, and overshooting action potentials in response to physiological stimuli.
DRG neurons cultured on MEAs for 4 days in the central chamber of the neu-microJoint bioreactor were screened with increasing concentrations of KCl (10, 30, and 50 mM) to detect spiking.

Molecule | sensitization of sensory neurons (sensory neurons) | other results
CCCCC[C@H](O)/C=C/[C@H]1[C@H](O)CC(=O)[C@@H]1C/C=C\CCCC(=O)O [PGE2, prostaglandin E2] | sensitize sensory neurons | 
IL-6: factor generated by M1 macrophages; cytokine | sensitize sensory neurons | 
tumor necrosis factor (TNF)-α | sensitize sensory neurons | 
IL1β: cytokine used to trigger OA conditions in the outer chambers |  | ADAMTS 4 mRNA expression in cartilage [1]: significant increases; MMP13 mRNA expression in cartilage [1]: significant increases
[Cl-].[K+] [KCl] |  | spiking activity of DRG neurons (DRG neurons): activity was detected
